Data published in publication PMC11242853, “The Antimicrobial Activity of Human Defensins at Physiological Non-Permeabilizing Concentrations Is Caused by the Inhibition of the Plasma Membrane H^+-ATPases” (International Journal of Molecular Sciences, 2024).
Where no end group is shown, it is not given here.

How the values were obtained:
[1] = tested on: Pseudomonas aeruginosa PAO1; assay: Antimicrobial spread-plate (CFU) killing assay, P. aeruginosa; type: cell-based; details: for non-permeabilizing inhibitory concentration (NPIC), P. aeruginosa: antimicrobial concentration (≤10% viable cells) that permeabilized ≤10% of cells, 10^6 cells/mL, Tris buffer pH 7.4, 90 min at 37 °C, from Figure 1 data, duplicates of three experiments
Procedure: (§1) To determine whether the above microbicidal concentrations exert a permeabilizing effect on fungal and bacterial membranes, the influx of the fluorescent nucleic acid-binding dye propidium iodide (PI) in cells incubated with the peptides was assessed. In cells, dye uptake reflects membrane permeabilization, as PI itself cannot permeate through an intact phospholipid bilayer. […] To select an antimicrobial but non-permeabilizing concentration of each peptide for further assays, we defined as a non-permeabilizing inhibitory concentration (NPIC) the antimicrobial inhibitory concentration (≤10% viable cells) that permeabilized ≤ 10% of cells incubated (90 min at 37 °C) in buffer solution.
(§2) Microbial susceptibility to the peptides was determined in a spread-plate assay as described previously. Briefly, cell suspensions (10^6 cells/mL) in Tris buffer (10 mM Tris-HCl, pH 7.4) were incubated for 90 min at 37 °C with 2-fold serial peptide dilutions. Peptide concentrations ranged from 0 to 2 μM. After incubation, the number of viable cells was determined by plating aliquots (100 μL) in duplicate on plates (SDA for C. albicans, TSA for P. aeruginosa, and M17G agarified medium for L. lactis) that had been dried for 30 min at room temperature in a laminar flow hood. Plates were incubated for 24–48 h at 30 °C (C. albicans and L. lactis) or 24 h at 37 °C (P. aeruginosa). Dilutions yielding 50–200 colonies were counted. Cell viability values, expressed as colony-forming units (CFUs), were calculated relative to the incubation without added peptides and represent the means ± standard deviation (SD) from duplicates of three independent experiments. For inhibition assays, unless otherwise noted, cell suspensions were preincubated (15 min at 37 °C) with the appropriate inhibitor prior to the addition of peptides, but the inhibitor was present throughout the incubation period with the peptide (90 min at 37 °C). Other specific experimental conditions are described as appropriate. In some experiments, the concentrations of human lactoferrin against C. albicans (5 μM), P. aeruginosa (1 μM), and L. lactis (0.065 μM) were used in the control assays. In various viability assays, BM2 peptide (0.25 μM), CCCP (50 μM), colistin (4 μg/mL), nystatin (50 μM), oligomycin A (16 μg/mL), piericidin A (32 μM), and TEA (10 mM) were used.

[2] = tested on: Lactococcus lactis subsp. lactis (strain IL1403); assay: Antimicrobial spread-plate (CFU) killing assay, fermenting L. lactis; type: cell-based; details: fermentative conditions; range tested 0.062 to 2 µM; Tris buffer, 90 min at 37 °C
Procedure: as §2, with “In some experiments, the concentrations of human lactoferrin against C. albicans (5 μM), P. aeruginosa (1 μM), and L. lactis (0.065 μM) were used in the control assays. In various viability assays, BM2 peptide (0.25 μM), CCCP (50 μM), colistin (4 μg/mL), nystatin (50 μM), oligomycin A (16 μg/mL), piericidin A (32 μM), and TEA (10 mM) were used.” left out

P. aeruginosa cells = assay: Permeability assay (propidium iodide uptake, flow cytometry), P. aeruginosa; type: cell-based, Pseudomonas aeruginosa; details: 90 min at 37 °C, Tris buffer, PI 1 µg/mL
Procedure: as §1

C. albicans cells [3] = assay: Extracellular potassium measurement (K+-efflux, ICP-MS); type: cell-based, Candida albicans; details: Table 2; no reference given
Procedure: Potassium measurements were performed via inductively coupled plasma mass spectrometry using an Agilent 7700x ICP-MS (Agilent Technologies, Santa Clara, CA, USA). C. albicans cells were cultured in SDB for 16–20 h at 30 °C. The cells were then subcultured in the same media to the mid-logarithmic growth phase and rapidly washed in sterile, deionized, double-distilled water. The cells (10^7 cells/mL) were immediately incubated with the peptides (NPIC) for 90 min at 37 °C. The tubes were centrifuged at 1100× g for 10 min and the supernatants were collected and stored at 4 °C until analysis. The percentage of cytosolic potassium released from cell suspensions treated with nystatin (50 μM) was determined in positive control assays. Total cellular K^+-content (100% value) was measured in the supernatant of cell suspensions previously treated with 0.5% (v/v) HClO4 alone, heated for 1 h at 95 °C, and centrifuged to remove cell debris. Results are expressed as the percentage (means ± SD) of K^+-release relative to the total cellular K^+-content from duplicates of at least three independent assays.

C. albicans cells [4] = assay: Total cellular ATP (BacTiter-Glo); type: cell-based, Candida albicans; details: for increase in ATP levels compared to the untreated control: defensins at NPIC, human lactoferrin 5 μM, BM2 peptide 0.25 μM, 10^6 cells/mL, BacTiter-Glo luminescence; for ATP increment: Table 2, no reference given
Procedure: Total ATP was measured using the BacTiter-Glo^TM Microbial Cell Viability Assay (Promega Co., Madison, WI, USA) according to the manufacturer’s instructions. […] Aliquots (100 µL) were incubated (90 min at 37 °C) with human defensins (NPICs). Human lactoferrin (5 μM) or BM2 peptide (0.25 μM) was used as positive controls. One hundred microliters of the incubation mixture was transferred to an opaque 96-well plate, mixed with an equal volume of BacTiter-Glo^TM reagent, and incubated for 15 min in the dark. The reagent uses a thermostable luciferase to generate luminescence in an ATP-dependent manner. The emitted luminescence was detected using a Varioskan Flash multimode reader (Thermo Scientific, Waltham, MA, USA) with a 10 s shaking and 1 s integration time. A calibration curve was generated for each experiment with ATP standards ranging from 1 to 1000 nM. All assays were performed at least three times in duplicate.

| Substance | non-permeabilizing inhibitory concentration (NPIC), P. aeruginosa [1] | effect of piericidin A on bactericidal activity, P. aeruginosa ([1]; cells pretreated with 32 µM piericidin A, defensins at NPIC) | effect of CCCP on bactericidal activity, P. aeruginosa ([1]; preincubated 15 min at 37 °C with 50 µM CCCP at pH 7.4, peptides at NPIC) | calculated NPIC against fermenting L. lactis [2] | concentration showing permeabilizing activity (increase in intracellular PI), P. aeruginosa (P. aeruginosa cells) | Partial K^+-efflux (C. albicans cells [3]) | increase in ATP levels compared to the untreated control (C. albicans cells [4]) | pseudomonacidal activity (comparison among defensins) ([1]; 0–2 μM, 90 min at 37 °C, Tris buffer) | ATP increment (C. albicans cells [4]) |
| --- | --- | --- | --- | --- | --- | --- | --- | --- | --- |
| HNP-1: human α-defensin, UniProtKB P59665, 30 amino acids, three disulfide bonds; purchased from PeptaNova | 0.5 µM | significantly (p < 0.001) protected | significant reduction | 0.125 µM | ≥ 0.5 µM | Yes | ~ 7 fold | – | – |
| hBD-3: human β-defensin, UniProtKB Q5U7J2, 45 amino acids; purchased from PeptaNova (GIINTLQKYYCRVRGGRCAVLSCLPKEEQIGKCSTRGRKCCRRKK; Beta-defensin 103; UniProt P81534 23-67, looked up) | 0.25 µM | – | – | – | – | Yes | ~ 6 fold | most potent pseudomonacidal activity | Yes |
| HNP-4: human α-defensin, UniProtKB P12838, 33 amino acids; purchased from PeptaNova (VCSCRLVFCRRTELRVGNCLIGGVSFTYCCTRV; ends and bridges not checked; cysteine pairing not given here; UniProt P12838 64-96, looked up) | 0.25 µM | – | – | – | – | Yes | ~ 8 fold | – | Yes |
